Patent US10533015B1, “Opioid receptor antagonist prodrugs” (Nirsum Laboratories, Inc., priority 2019, dated 2020)
Like-named read-outs stand apart in the source and are kept apart here.

Columns and labels:
[1] = Plasma stability assay, rat plasma; assay type: in vitro ADME; settings: 10 μM, 37° C.
Procedure: Plasma stability determination of the test compounds in rat, dog, cynomolgus monkey and human plasma is performed using HPLC-MS. For rat, incubations are carried out in 96-well polypropylene plates in 5 aliquots of 70 μL each (one for each time point). […] Five time points are analyzed (0, 15, 120, 480 and 1440 min). For dog, monkey and human, test compounds (2 μM, final solvent concentration 1%) were also incubated at 37° C. and analyzed at five time points (0, 10, 30, 60 and 120 min). All incubations are performed in duplicates. The samples are analyzed by HPLC-MS. The percentage of parent compound remaining after incubation in plasma is determined.

[2] = heating temp. 60 °C, obs. temp. 25 °C
[3] = heating temp. 40 °C, obs. temp. 40 °C

| SMILES | % remaining at time point ([1]; 0 min) | % remaining at time point ([1]; 15 min) | % remaining at time point ([1]; 120 min) | % remaining at time point ([1]; 480 min) | % remaining at time point ([1]; 1440 min) | Approximate Solubility (mg/mL) in Excipient: Cottonseed oil [2] | Approximate Solubility (mg/mL) in Excipient: Sesame oil [2] | Equilibrium solubility (mg/mL) Water [3] | Approximate Solubility (mg/mL) in Excipient: Cottonseed oil [3] | Approximate Solubility (mg/mL) in Excipient: Ethanol (Ethanol, heating temp. 40 °C, obs. temp. 40 °C) | Approximate Solubility (mg/mL) in Excipient: Sesame oil [3] |
| --- | --- | --- | --- | --- | --- | --- | --- | --- | --- | --- | --- |
| CCCCCCCCCCCCCCCCCCCCCC(=O)Oc1ccc2c3c1O[C@H]1C(=O)CC[C@@]4(O)C(C2)N(CC2CC2)CC[C@]314 [Compound 51, (4aS,7aR,12bS)-3-(cyclopropylmethyl)-4a-hydroxy-7-oxo-2,3,4,4a,5,6,7,7a-octahydro-1H-4,12-methanobenzofuro[3,2-e]isoquinolin-9-yl docosanoate] | 100% | 107.4% | 105.3% | 88.2% | 92.7% | <50 mg/mL | <46 mg/mL | <0.001 mg/mL |  |  |  |
| CCCCCCCCCCCCCCC(=O)Oc1ccc2c3c1O[C@H]1C(=O)CC[C@@]4(O)C(C2)N(CC2CC2)CC[C@]314 [Compound 58, (4aS,7aR,12bS)-3-(cyclopropylmethyl)-4a-hydroxy-7-oxo-2,3,4,4a,5,6,7,7a-octahydro-1H-4,12-methanobenzofuro[3,2-e]-isoquinolin-9-yl pentadecanoate] | 100% | 37% | 20% | 2.9% | 1.8% | 101.8 to 203.6 mg/mL | 99.4 to 198.8 mg/mL |  |  |  |  |
| CCCCCCCCCCCCCCCCCCCC(=O)Oc1ccc2c3c1O[C@H]1C(=O)CC[C@@]4(O)C(C2)N(CC2CC2)CC[C@]314 [Compound 50, (4aS,7aR,12bS)-3-(cyclopropylmethyl)-4a-hydroxy-7-oxo-2,3,4,4a,5,6,7,7a-octahydro-1H-4,12-methanobenzofuro[3,2-e]isoquinolin-9-yl iconsanoate] | 100% | 114.5% | 102.7% | 83.3% | 73.9% | <51 mg/mL | <52 mg/mL | <0.001 mg/mL |  |  |  |
| C=C1CC[C@@]2(O)C3Cc4ccc(OC(=O)OCCCCCCCCCC)c5c4[C@@]2(CCN3CC2CC2)[C@H]1O5 [Compound 18, (4aS,7aS,12bS)-3-(cyclopropylmethyl)-4a-hydroxy-7-methylene-2,3,4,4a,5,6,7,7a-octahydro-1H-4,12-methanobenzofuro[3,2-e]isoquinolin-9-yl decyl carbonate] | 100% | 0.6% | 0.3% | 0.1% | 0% | >400 mg/mL | >402 mg/mL | <0.0002 mg/mL | >403 mg/mL | >209 mg/mL | >403 mg/mL |
